Experimental findings from PubChem BioAssay (NCI) are described below.

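Values below derive from 48-hour exposures of cells grown in 96-well plates, with endpoints linearly interpolated between the two concentrations bracketing the appropriate inhibition level. GI50 is the concentration that inhibits growth by half. TGI is the concentration that stops growth completely.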

What all share (assay): NCI-60 cell line screen, 48 h
Assay [1] has as its system 786-0 renal.
For assay [2], the system named is CAKI-1 renal.
The test system of assay [3] is HCC-2998 colon.
For assay [4], the system named is HOP-92 NSCLC.
Assay [5] relates to LOX IMVI melanoma.
For assay [6], the system named is MALME-3M melanoma.
The subject of assay [7] is MCF7 breast.
Assay [8] relates to MDA-MB-231 breast.
For assay [9], the system named is SF-539 CNS.
Assay [10] concerns UACC-62 melanoma.

Regarding `N=c1c2c(=O)n3c(nc2nc2sc4ccc(Cl)cc4n12)-c1ccccc1Sc1ccccc1-3`, the GI50 is 2.55 µM in assay [1]; 2.36 µM in assay [2]; 3.12 µM in [3]; 0.762 µM in assay [4]; 2.69 µM in [5]; 2.15 µM in assay [6]. Further, the GI50 in assay [7] is 3.06 µM; in [8] it was 2.56 µM; in assay [9], 3.34 µM; in assay [10] it was 1.28 µM. The TGI was 6.84 µM in assay [1]; 12.9 µM in assay [2]; 12.8 µM in assay [3]; 6.08 µM in [4]; 20.2 µM in assay [5]; 9.21 µM in assay [6]. Besides, the TGI was determined as 21.8 µM in assay [7], 16.2 µM in assay [8], 18.4 µM in [9] and 3.27 µM in assay [10].

`N=C(N)c1ccc(-c2ccc(-c3ccco3)o2)cc1F`: the GI50 in [1] is 1.74 µM; in assay [2], 1.78 µM; in assay [3] it was 1.94 µM; in assay [4] it was 0.968 µM; in [5], 1.6 µM; in assay [6], 1.74 µM. Also, the figures for the GI50 in [7], in [8] and in assay [9] were 1.83 µM, 1.6 µM and 1.6 µM, respectively. Further, the TGI in assay [1] worked out at 4.08 µM; in assay [2], 4.64 µM; in [3] it was 3.8 µM; in [4], 2.98 µM; in assay [5] it was 3.05 µM; in assay [6] it was 3.38 µM. The TGI turned out to be 4.84 µM in assay [7], 4.01 µM in assay [8] and 3.25 µM in assay [9].

Regarding `COC(=O)/C(Br)=C/c1c[nH]c2ccc(Br)cc12`, the GI50 in assay [1] is 13 µM; in assay [2] it was 12.9 µM; in assay [3], 15.9 µM; in assay [4] it was 2.13 µM; in assay [5] it was 7.18 µM; in [6], 14.5 µM. The GI50 was 10.9 µM in assay [7], 11.2 µM in assay [8], 14.9 µM in assay [9] and 12.4 µM in assay [10]. In addition, the TGI was determined as 35.9 µM in [1]; 29.1 µM in [2]; 30.4 µM in assay [3]; 15.7 µM in assay [4]; 20.2 µM in assay [5]; 28.3 µM in assay [6]. For the same molecule, the TGI in [7] turned out to be 26.8 µM; in assay [8], 30.4 µM; in assay [9], 32.9 µM; in [10] it was 26.7 µM.

Regarding `Cc1ccc(S(=O)(=O)C2=C3C(=C(c4ccccc4)c4ccccc43)CN(S(=O)(=O)c3ccc(C)cc3)C2)cc1`, the GI50 was 1.67 µM in [1]; 11.5 µM in [2]; 22.5 µM in [3]; 1.86 µM in [4]; 1.12 µM in assay [5]; 9.71 µM in [6]. For the same molecule, the GI50 in [7] was 2.43 µM; in [8] it was 2.9 µM; in [9] it was 10.9 µM; in assay [10], 4.85 µM. Moreover, the TGI is 3.22 µM in [1]; greater than 100 µM in assay [2]; greater than 100 µM in [3]; 13.8 µM in assay [4]; 2.42 µM in assay [5]; 29.2 µM in assay [6]. The TGI in [7] was greater than 100 µM; in assay [8], 11.1 µM; in assay [9] it was 49 µM; in assay [10], 24.9 µM.

For `Cc1ccc(S(=O)(=O)N2C/C(=C\c3cc(F)cc(F)c3)C(=O)/C(=C/c3cc(F)cc(F)c3)C2)cc1`, the GI50 in assay [1] is 0.492 µM; in assay [2], 0.367 µM; in assay [3], 0.632 µM; in [4], 1.1 µM; in assay [5], 0.175 µM; in [6], 0.256 µM. Besides, the GI50 was 0.177 µM in [7], 0.285 µM in assay [8], 0.71 µM in [9] and 0.231 µM in assay [10]. Also, the TGI is 1.66 µM in assay [1]; 2.4 µM in assay [2]; 1.97 µM in assay [3]; 3.17 µM in assay [4]; 0.339 µM in assay [5]; 0.647 µM in assay [6]. Moreover, the TGI is 1.38 µM in assay [7], 0.867 µM in assay [8], 2.16 µM in assay [9] and 0.605 µM in assay [10].

Take `COc1cccc(-c2cc(NCc3ccc4c(c3)OCO4)nc(N)n2)c1`: the GI50 in assay [1] was 0.0819 µM; in [2], 1.06 µM; in assay [3], 0.137 µM; in assay [4] it was 4.04 µM; in assay [5] it was 0.0773 µM; in assay [6] it was 0.112 µM. The GI50 in assay [7] is 0.0765 µM; in [8], 0.228 µM; in [9], 0.0909 µM; in assay [10], 0.0546 µM. Also, the TGI in assay [1] is 12.9 µM; in assay [2], 32.4 µM; in assay [3], 2.9 µM; in assay [4] it was 20.5 µM; in [5] it was 19.4 µM; in assay [6] it was 26.3 µM. Also, the TGI in assay [7] was 13.9 µM; in [8] it was 13.7 µM; in [9] it was 3.22 µM; in assay [10] it was 18.1 µM.

`Cc1cc(NC(=O)C(=O)Cc2nc3ccccc3s2)ccc1Cl`: the TGI in assay [1], in assay [2], in assay [3], in assay [4], in assay [5] and in assay [6] was greater than 100 µM throughout. In addition, the TGI in assay [7], in assay [8], in assay [9] and in assay [10] was greater than 100 µM each time.

Take `O=C(O)c1cn(C2CC2)c2cc(N3CCN(C(=O)Nc4nc(-c5ccc(Cl)cc5)cs4)CC3)c(F)cc2c1=O`: the GI50 is 2.32 µM in assay [1]; 3.81 µM in assay [2]; 4.09 µM in [3]; 1.85 µM in [4]; 0.567 µM in assay [5]; 1.47 µM in assay [6]. Moreover, the GI50 in assay [7] was 2.55 µM; in assay [8] it was 3.63 µM; in assay [9], 0.775 µM; in assay [10] it was 2.4 µM. Moreover, the TGI in assay [1] is 22.5 µM; in assay [2], greater than 100 µM; in assay [3], greater than 100 µM; in assay [4] it was 7.63 µM; in assay [5], greater than 100 µM; in [6], 5.83 µM. For the same molecule, the TGI in assay [7] was greater than 100 µM; in [8], greater than 100 µM; in assay [9] it was greater than 100 µM; in assay [10], 37.9 µM.
